Results reported in ChEMBL document CHEMBL1201862, “PubChem BioAssay data set” (2004).
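Growth conditions: 96-well plates. Treatment: test compound, 48 hours, 5 concentrations. Analysis: linear interpolation between bracketing concentrations; unreached endpoints set to highest concentration. Here, GI50 denotes the concentration required for 50% inhibition of growth.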 Activity calls are given as the source filed them. Cut-off read from the data, not from the text of the source: active = GI50 up to about 1.1 µM and inactive = higher.

Legend:
Assay in all cases: NCI-60 cell line screen, 48 h
OVCAR-8 = system: OVCAR-8
KM12 = system: KM12
OVCAR-5 = system: OVCAR-5
786-0 = system: 786-0
M14 = system: M14
ACHN = system: ACHN
NCI-H23 = system: NCI-H23
UACC-62 = system: UACC-62
EKVX = system: EKVX
OVCAR-4 = system: OVCAR-4
A498 = system: A498
K562 = system: K562
DU-145 = system: DU-145
HL-60 = system: HL-60
MOLT-4 = system: MOLT-4
HCC 2998 = system: HCC 2998
UO-31 = system: UO-31
SF-539 = system: SF-539
SK-OV-3 = system: SK-OV-3
SR = system: SR

Row | SMILES | GI50 (OVCAR-8) | GI50 (KM12) | GI50 (OVCAR-5) | GI50 (786-0) | GI50 (M14) | GI50 (ACHN) | GI50 (NCI-H23) | GI50 (UACC-62) | GI50 (EKVX) | GI50 (OVCAR-4) | GI50 (A498) | GI50 (K562) | GI50 (DU-145) | GI50 (HL-60) | GI50 (MOLT-4) | GI50 (HCC 2998) | GI50 (UO-31) | GI50 (SF-539) | GI50 (SK-OV-3) | GI50 (SR)
1 | CCN(CC)CCOc1ccc(N2Cc3cc(OC)c(OC)cc3C2=O)cc1 | > 100 µM (inactive) | > 100 µM (inactive) | > 100 µM (inactive) | > 100 µM (inactive) | > 100 µM (inactive) | > 100 µM (inactive) | > 100 µM (inactive) | > 100 µM (inactive) | > 100 µM (inactive) | > 100 µM (inactive) | > 100 µM (inactive) | > 100 µM (inactive) | > 100 µM (inactive) | > 100 µM (inactive) | > 100 µM (inactive) | > 100 µM (inactive) | < 0.01 µM (active) | > 100 µM (inactive) | > 100 µM (inactive) | > 100 µM (inactive)
2 | CCCN(C(=O)c1ccccc1)C(C#N)c1ccc(C(C#N)N(CCC)C(=O)c2ccccc2)cc1 (stereo not given) | 55.3 µM (inactive) | > 100 µM (inactive) | 93.3 µM (inactive) | 38.1 µM (inactive) | > 100 µM (inactive) | 84.1 µM (inactive) | > 100 µM (inactive) | 45 µM (inactive) | 58.3 µM (inactive) | 14.5 µM (inactive) | 37.1 µM (inactive) | > 100 µM (inactive) | 77.6 µM (inactive) | > 100 µM (inactive) | > 100 µM (inactive) | > 100 µM (inactive) | > 100 µM (inactive) | 28.5 µM (inactive) | 22 µM (inactive) | > 100 µM (inactive)
3 | Cc1ccc(/N=N/c2ccc(O)c(CN(C)C)c2)cc1 | 21.4 µM (inactive) | 15.8 µM (inactive) | 14.4 µM (inactive) | 22.3 µM (inactive) | 21.9 µM (inactive) | 17.3 µM (inactive) | 36.1 µM (inactive) | 20.3 µM (inactive) | 22.6 µM (inactive) | 22.6 µM (inactive) | 19.1 µM (inactive) | 20 µM (inactive) | 17.8 µM (inactive) | 18.1 µM (inactive) | 19.2 µM (inactive) | 15.5 µM (inactive) | 16 µM (inactive) | 17.7 µM (inactive) | 32.7 µM (inactive) | 24.8 µM (inactive)
4 | O=C1CCN2c3ccccc3[C@H]3Cc4cccc(c4[C@@H]2C3)CCO1 | 31.7 µM (inactive) | 34.9 µM (inactive) | > 100 µM (inactive) | 41.8 µM (inactive) | 19.4 µM (inactive) | 44 µM (inactive) | 35.3 µM (inactive) | 43.5 µM (inactive) | 38.5 µM (inactive) | 57.1 µM (inactive) | 56.5 µM (inactive) | 21.8 µM (inactive) | 68.4 µM (inactive) | 25.5 µM (inactive) | 20.3 µM (inactive) | > 100 µM (inactive) | 22.9 µM (inactive) | 79.3 µM (inactive) | 51.2 µM (inactive) | 26.1 µM (inactive)
5 | CCOC(=O)CCC(NC(=O)c1ccc(Nc2nc3cc(C(F)(F)F)ccc3nc2-c2ccccc2)cc1)C(=O)OCC (stereo not given) | 20.6 µM (inactive) | 17.7 µM (inactive) | > 100 µM (inactive) | 29.6 µM (inactive) | > 100 µM (inactive) | 21 µM (inactive) | 20.7 µM (inactive) | 13.3 µM (inactive) | 20.2 µM (inactive) | 21.9 µM (inactive) | 5.35 µM (inactive) | 23.4 µM (inactive) | 24.5 µM (inactive) | 36.1 µM (inactive) | 16.9 µM (inactive) | 24.3 µM (inactive) | 14.6 µM (inactive) | 31.3 µM (inactive) | 30.5 µM (inactive) | 13.2 µM (inactive)
6 | O=S(=O)(O)c1ccc2cccc(/N=N\c3c(O)ccc4ccccc34)c2c1 | > 100 µM (inactive) | > 100 µM (inactive) | > 100 µM (inactive) | > 100 µM (inactive) | > 100 µM (inactive) | > 100 µM (inactive) | > 100 µM (inactive) | > 100 µM (inactive) | > 100 µM (inactive) | > 100 µM (inactive) | > 100 µM (inactive) | > 100 µM (inactive) | > 100 µM (inactive) | > 100 µM (inactive) | > 100 µM (inactive) | > 100 µM (inactive) | > 100 µM (inactive) | > 100 µM (inactive) | > 100 µM (inactive) | > 100 µM (inactive)
7 | CC1(C)[C@@H]2C[C@H]1C(Cc1ccccc1C[C@H]1c3cc(-c4ccccn4)ncc3[C@H]3C[C@@H]1C3(C)C)c1cc(-c3ccccn3)ncc12 (stereo not given in full) | 0.378 µM (active) | 0.389 µM (active) | 0.791 µM (active) | 0.253 µM (active) | 0.28 µM (active) | 0.204 µM (active) | 0.726 µM (active) | 0.292 µM (active) | 0.461 µM (active) | 0.716 µM (active) | 0.673 µM (active) | 0.356 µM (active) | 0.375 µM (active) | 0.232 µM (active) | 0.236 µM (active) | 0.982 µM (active) | 0.312 µM (active) | 0.577 µM (active) | 0.518 µM (active) | 0.153 µM (active)
8 | COc1ccc2c(c1)/C(=C\c1c(Cl)n(-c3ccccc3)c3ccccc13)C(=O)N2 | 5.77 µM (inactive) | 3.18 µM (inactive) | 12.4 µM (inactive) | 8.45 µM (inactive) | 3.2 µM (inactive) | 9.18 µM (inactive) | 6.01 µM (inactive) | 5.89 µM (inactive) | 5.86 µM (inactive) | 9.2 µM (inactive) | 5.27 µM (inactive) | 2.19 µM (inactive) | 5.89 µM (inactive) | 2.72 µM (inactive) | 2.23 µM (inactive) | 4.89 µM (inactive) | 1.53 µM (inactive) | 2.98 µM (inactive) | 7.36 µM (inactive) | 2.59 µM (inactive)
